“And” between values parts separate entries of the source, which are not always exact repeats. Equal entries are not always repeated. Where two headings read alike, the source gives them in different places.
What was measured:
Format in all cases: biochemical
human CSNK1A1 [1] = target: T1, human CSNK1A1 (Homo sapiens (Human), UniProt P48729); assay: CSNK1A1 Assay 2 (ADP-Glo, 1 μM ATP); settings: substrate biotin-Ahx-KRRRAL-pS-VASLPGL, read-out: CSNK1A1 Assay 2 IC50 [mol/l] (median)
Procedure, shortened: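 Full-length human CSNK1A1 as an N-terminal GST fusion (baculovirus/insect cells) with biotinylated peptide substrate biotin-Ahx-KRRRAL-pS-VASLPGL and 1 μM ATP, in HEPES pH 7.5 buffer. Compounds were pre-incubated with enzyme (~0.0375 ng/μL) for 15 min at 22 °C. Generated ADP was read by ADP-Glo luminescence as the activity measure.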

[2] = target: wild-type Epidermal Growth Factor Receptor (EGFR) (Homo sapiens (Human), UniProt P00533); assay: WT-EGFR Kinase Assay (TR-FRET, 2 mM ATP)
human CSNK1A1 [3] = target: T1, human CSNK1A1; assay: CSNK1A1 High ATP Assay (ADP-Glo, 1 mM ATP); settings: read-out: CSNK1A1 high ATP assay IC50 [mol/l] (median)
Procedure, shortened: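 GST-tagged full-length human CSNK1A1 from baculovirus-infected insect cells (typically about 0.4 ng/μL), pre-incubated with compound 15 min at 22 °C. Reaction with biotinylated peptide biotin-Ahx-KRRRAL-pS-VASLPGL at 1 mM ATP. ADP formed read by ADP-Glo luminescence.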

human CSNK1D = human CSNK1D (Homo sapiens (Human), UniProt P48730); assay: CSNK1D Assay (ADP-Glo, 1 μM ATP); settings: read-out: CSNK1D IC50 [mol/l] (median)
Procedure, shortened: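 GST-tagged full-length human CSNK1D from baculovirus-infected insect cells, typically ~0.5 ng/μL, with biotinylated peptide substrate and 1 μM ATP in HEPES pH 7.5 buffer. Compound is preincubated with enzyme 15 min at 22 °C. ADP formed is quantified by ADP-Glo luminescence.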

[4] = EGFR Wildtyp- 2 mM ATP IC50 [mol/l] (median)
[5] = read-out: EGFR Wildtyp- 2 mM ATP IC50 [mol/l] (median)

Chain of human CSNK1D (P48730 whole entry): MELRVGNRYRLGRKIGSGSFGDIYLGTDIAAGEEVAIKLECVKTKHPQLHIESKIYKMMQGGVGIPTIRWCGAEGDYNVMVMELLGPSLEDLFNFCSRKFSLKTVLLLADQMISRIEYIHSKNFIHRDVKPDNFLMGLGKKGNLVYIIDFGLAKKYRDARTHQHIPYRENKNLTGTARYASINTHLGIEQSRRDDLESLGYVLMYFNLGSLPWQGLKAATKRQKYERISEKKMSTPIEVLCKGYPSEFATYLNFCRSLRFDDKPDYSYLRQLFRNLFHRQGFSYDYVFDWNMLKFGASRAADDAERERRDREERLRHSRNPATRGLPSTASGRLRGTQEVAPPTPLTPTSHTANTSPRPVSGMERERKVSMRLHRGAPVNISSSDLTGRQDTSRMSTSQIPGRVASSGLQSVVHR
Chain of wild-type Epidermal Growth Factor Receptor (EGFR) (P00533 669-1210): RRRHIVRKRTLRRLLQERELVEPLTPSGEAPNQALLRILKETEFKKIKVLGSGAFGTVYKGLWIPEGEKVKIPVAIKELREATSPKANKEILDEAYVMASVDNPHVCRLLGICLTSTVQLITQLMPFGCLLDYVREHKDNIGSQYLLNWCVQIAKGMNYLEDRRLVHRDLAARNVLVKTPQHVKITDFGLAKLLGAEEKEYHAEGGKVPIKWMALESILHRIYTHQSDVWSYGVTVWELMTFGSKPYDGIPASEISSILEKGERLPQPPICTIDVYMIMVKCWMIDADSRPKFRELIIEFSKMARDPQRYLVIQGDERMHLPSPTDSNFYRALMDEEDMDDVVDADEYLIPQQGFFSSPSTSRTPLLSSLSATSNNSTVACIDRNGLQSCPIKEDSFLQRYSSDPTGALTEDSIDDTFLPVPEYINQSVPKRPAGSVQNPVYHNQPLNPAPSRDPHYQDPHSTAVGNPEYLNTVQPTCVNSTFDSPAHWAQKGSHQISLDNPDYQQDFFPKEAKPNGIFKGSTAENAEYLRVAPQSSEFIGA
T1 sequence (P48729 whole entry, the tested form may be a part): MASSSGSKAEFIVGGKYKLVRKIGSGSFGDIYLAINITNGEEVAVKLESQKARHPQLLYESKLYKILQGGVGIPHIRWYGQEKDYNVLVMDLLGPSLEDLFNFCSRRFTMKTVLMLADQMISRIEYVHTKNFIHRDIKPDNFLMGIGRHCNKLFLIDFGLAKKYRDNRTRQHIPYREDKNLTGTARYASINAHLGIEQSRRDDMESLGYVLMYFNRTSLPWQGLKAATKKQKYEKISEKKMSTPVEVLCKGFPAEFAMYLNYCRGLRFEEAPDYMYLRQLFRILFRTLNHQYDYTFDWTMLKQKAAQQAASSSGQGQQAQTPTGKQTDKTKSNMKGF

SMILES: Cc1ccccc1Nc1c(-c2ccnc(NC(=O)C(CC(F)F)c3ccc(F)cc3)c2)[nH]c2c1C(=O)NC1(CCC1)C2 (racemic) [Example 143, 4,4-difluoro-2-(4-fluorophenyl)-N-{4-[3′-(2-methylanilino)-4′-oxo-1′,4′,5′,7′-tetrahydrospiro[cyclobutane-1,6′-pyrrolo[3,2-c]pyridin]-2′-yl]pyridin-2-yl}butanamide (Racemate)]
- IC50 (human CSNK1A1 [1]): 0.0167 µM
- IC50 [2, 4]: > 20 µM
- IC50 (human CSNK1A1 [3]): 0.032 µM
- IC50 (human CSNK1D): 0.0184 µM

SMILES: O=C1NC2(CC2)Cc2[nH]c(-c3ccnc(NC(=O)C(CC(F)F)c4ccc(F)cc4)c3)c(Nc3ccccc3)c21 (racemic) [Example 147, N-[4-(3′-anilino-4′-oxo-1′,4′,5′,7′-tetrahydrospiro[cyclopropane-1,6′-pyrrolo[3,2-c]pyridin]-2′-yl)pyridin-2-yl]-4,4-difluoro-2-(4-fluorophenyl)butanamide (Racemate)]
- IC50 (human CSNK1A1 [1]): 0.0062 µM
- IC50 [2, 4]: 0.268 µM
- IC50 (human CSNK1A1 [3]): 0.0192 µM
- IC50 (human CSNK1D): 0.0116 µM

SMILES: CC(C(=O)Nc1cc(-c2[nH]c3c(c2Nc2ccccc2)C(=O)N(C)C2(CCC2)C3)ccn1)c1ccc(F)cc1 (racemic) [Example 157, N-[4-(3′-anilino-5′-methyl-4′-oxo-1′,4′,5′,7′-tetrahydrospiro[cyclobutane-1,6′-pyrrolo[3,2-c]pyridin]-2′-yl)pyridin-2-yl]-2-(4-fluorophenyl)propanamide (Racemate)]
- IC50 (human CSNK1A1 [1]): 0.00876 µM
- IC50 [2, 4]: > 20 µM
- IC50 (human CSNK1A1 [3]): 0.0508 µM
- IC50 (human CSNK1D): 0.0158 µM

SMILES: CN1C(=O)c2c([nH]c(-c3ccnc(NC(=O)C(CC(F)F)c4ccc(F)cc4)c3)c2Nc2ccccc2)CC12CCC2 (racemic) [Example 160, N-[4-(3′-anilino-5′-methyl-4′-oxo-1′,4′,5′,7′-tetrahydrospiro[cyclobutane-1,6′-pyrrolo[3,2-c]pyridin]-2′-yl)pyridin-2-yl]-4,4-difluoro-2-(4-fluorophenyl)butanamide (Racemate)]
- IC50 (human CSNK1A1 [1]): 0.0133 µM
- IC50 [2, 4]: > 20 µM
- IC50 (human CSNK1A1 [3]): 0.0272 µM
- IC50 (human CSNK1D): 0.0158 µM

SMILES: CC(C(=O)Nc1cc(-c2[nH]c3c(c2Nc2ccccc2)C(=O)NCC3)ccn1)c1ccc(F)cc1 (single isomer, unassigned) [Example 10, N-[4-(3-anilino-4-oxo-4,5,6,7-tetrahydro-1H-pyrrolo[3,2-c]pyridin-2-yl)pyridin-2-yl]-2-(4-fluorophenyl)propanamide]
- IC50 (human CSNK1A1 [1]): 0.00461 µM
- IC50 [2, 4]: 12.4 µM
- IC50 (human CSNK1A1 [3]): 0.0255 µM
- IC50 (human CSNK1D): 0.014 µM

SMILES: CC(C(=O)Nc1cc(-c2[nH]c3c(c2Nc2ccccc2)C(=O)NCC3)ccn1)c1ccc(F)cc1 (single isomer, unassigned) [Example 11, N-[4-(3-anilino-4-oxo-4,5,6,7-tetrahydro-1H-pyrrolo[3,2-c]pyridin-2-yl)pyridin-2-yl]-2-(4-fluorophenyl)propanamide]
- IC50 (human CSNK1A1 [1]): 0.0304 µM
- IC50 [2, 4]: 2.29 µM
- IC50 (human CSNK1A1 [3]): 3.97 µM
- IC50 (human CSNK1D): 0.0308 µM

SMILES: CC(C(=O)Nc1cc(-c2[nH]c3c(c2Nc2ccccc2Cl)C(=O)NCC3)ccn1)c1ccc(F)cc1 (single isomer, unassigned) [Example 15, N-{4-[3-(2-chloroanilino)-4-oxo-4,5,6,7-tetrahydro-1H-pyrrolo[3,2-c]pyridin-2-yl]pyridin-2-yl}-2-(4-fluorophenyl)propanamide]
- IC50 (human CSNK1A1 [1]): 0.0425 µM
- IC50 [2, 4]: > 20 µM
- IC50 (human CSNK1A1 [3]): 10.7 µM and > 5.71 µM
- IC50 (human CSNK1D): 0.0386 µM

SMILES: CC(C(=O)Nc1cc(-c2[nH]c3c(c2Nc2ccccc2Cl)C(=O)NCC3)ccn1)c1ccc(F)cc1 (single isomer, unassigned) [Example 16, N-{4-[3-(2-chloroanilino)-4-oxo-4,5,6,7-tetrahydro-1H-pyrrolo[3,2-c]pyridin-2-yl]pyridin-2-yl}-2-(4-fluorophenyl)propanamide]
- IC50 (human CSNK1A1 [1]): 0.00257 µM
- IC50 [2, 5]: > 20 µM
- IC50 (human CSNK1A1 [3]): 0.102 µM
- IC50 (human CSNK1D): 0.008 µM

SMILES: CN1CCc2[nH]c(-c3ccnc(NC(=O)C(CO)c4ccc(F)cc4)c3)c(Nc3ccccc3)c2C1=O (single isomer, unassigned) [Example 18, N-[4-(3-anilino-5-methyl-4-oxo-4,5,6,7-tetrahydro-1H-pyrrolo[3,2-c]pyridin-2-yl)pyridin-2-yl]-2-(4-fluorophenyl)-3-hydroxypropanamide]
- IC50 (human CSNK1A1 [1]): 0.0204 µM
- IC50 [2, 4]: 14.9 µM
- IC50 (human CSNK1A1 [3]): 1.79 µM
- IC50 (human CSNK1D): 0.0447 µM

SMILES: CN1CCc2[nH]c(-c3ccnc(NC(=O)C(CO)c4ccc(F)cc4)c3)c(Nc3ccccc3)c2C1=O (single isomer, unassigned) [Example 19, N-[4-(3-anilino-5-methyl-4-oxo-4,5,6,7-tetrahydro-1H-pyrrolo[3,2-c]pyridin-2-yl)pyridin-2-yl]-2-(4-fluorophenyl)-3-hydroxypropanamide]
- IC50 (human CSNK1A1 [1]): 0.0017 µM
- IC50 [2, 4]: > 20 µM (5×) and 16.1 µM
- IC50 (human CSNK1A1 [3]): 0.0106 µM
- IC50 (human CSNK1D): 0.00655 µM

SMILES: CCN1CCc2[nH]c(-c3ccnc(NC(=O)C(C)c4ccc(F)cc4)c3)c(Nc3ccccc3)c2C1=O (single isomer, unassigned) [Example 25, N-[4-(3-anilino-5-ethyl-4-oxo-4,5,6,7-tetrahydro-1H-pyrrolo[3,2-c]pyridin-2-yl)pyridin-2-yl]-2-(4-fluorophenyl)propanamide]
- IC50 (human CSNK1A1 [1]): 0.0554 µM
- IC50 [2, 4]: > 20 µM
- IC50 (human CSNK1A1 [3]): 12.7 µM and > 20 µM
- IC50 (human CSNK1D): 0.0886 µM

SMILES: CCN1CCc2[nH]c(-c3ccnc(NC(=O)C(C)c4ccc(F)cc4)c3)c(Nc3ccccc3)c2C1=O (single isomer, unassigned) [Example 26, N-[4-(3-anilino-5-ethyl-4-oxo-4,5,6,7-tetrahydro-1H-pyrrolo[3,2-c]pyridin-2-yl)pyridin-2-yl]-2-(4-fluorophenyl)propanamide]
- IC50 (human CSNK1A1 [1]): 0.00405 µM
- IC50 [2, 5]: > 20 µM
- IC50 (human CSNK1A1 [3]): 0.288 µM
- IC50 (human CSNK1D): 0.0231 µM

SMILES: CC(C(=O)Nc1cc(-c2[nH]c3c(c2Nc2ccccc2)C(=O)NC(C)(C)C3)ccn1)c1ccc(F)cc1 (single isomer, unassigned) [Example 39, N-[4-(3-anilino-6,6-dimethyl-4-oxo-4,5,6,7-tetrahydro-1H-pyrrolo[3,2-c]pyridin-2-yl)pyridin-2-yl]-2-(4-fluorophenyl)propanamide]
- IC50 (human CSNK1A1 [1]): 0.179 µM
- IC50 [2, 4]: > 20 µM
- IC50 (human CSNK1A1 [3]): 2.84 µM and 2.9 µM and > 20 µM (2×)
- IC50 (human CSNK1D): 0.214 µM

SMILES: CC(C(=O)Nc1cc(-c2[nH]c3c(c2Nc2ccccc2F)C(=O)N(C)CC3)ccn1)c1ccc(F)cc1 (single isomer, unassigned) [Example 42, N-{4-[3-(2-fluoroanilino)-5-methyl-4-oxo-4,5,6,7-tetrahydro-1H-pyrrolo[3,2-c]pyridin-2-yl]pyridin-2-yl}-2-(4-fluorophenyl)propanamide]
- IC50 (human CSNK1A1 [1]): 0.0024 µM
- IC50 [2, 5]: > 20 µM
- IC50 (human CSNK1A1 [3]): 0.0572 µM
- IC50 (human CSNK1D): 0.00492 µM

SMILES: CN1C(=O)c2c([nH]c(-c3ccnc(NC(=O)C(CC(F)F)c4ccc(F)cc4)c3)c2Nc2ccccc2F)CC1(C)C (single isomer, unassigned) [Example 46, 4,4-difluoro-N-{4-[3-(2-fluoroanilino)-5,6,6-trimethyl-4-oxo-4,5,6,7-tetrahydro-1H-pyrrolo[3,2-c]pyridin-2-yl]pyridin-2-yl}-2-(4-fluorophenyl)butanamide]
- IC50 (human CSNK1A1 [1]): 0.00664 µM
- IC50 [2, 4]: > 20 µM
- IC50 (human CSNK1A1 [3]): 0.119 µM
- IC50 (human CSNK1D): 0.00833 µM

Source: patent publication US12227501B2, “3-amino-2-[2-(acylamino)pyridin-4-yl]-1,5,6,7-tetrahydro-4h-pyrrolo[3,2-c]pyridin-4-one as CSNK1 inhibitors” (Bayer Aktiengesellschaft, priority 2019, dated 2025)
